The data set is described as follows: Solubility in water by HPLC. Type of data set: physicochemical.

Molecules are shown by their SMILES. Values after ≈ are worked out from the molar mass of the structure shown.

`CC[C@H](C)[C@H](NC(=O)[C@H](C)NC(=O)CNC(=O)[C@H](CCCCN)NC(=O)[C@H](CC(N)=O)NC(=O)[C@H](CO)NC(=O)CNC(=O)[C@@H](NC(=O)[C@H](CC(=O)O)NC(=O)[C@H](C)NC(=O)[C@H](Cc1ccccc1)NC(=O)[C@H](Cc1ccccc1)NC(=O)[C@@H](NC(=O)[C@H](CC(C)C)NC(=O)[C@H](CCCCN)NC(=O)[C@H](CCC(N)=O)NC(=O)[C@H](Cc1cnc[nH]1)NC(=O)[C@H](Cc1cnc[nH]1)NC(=O)[C@@H](NC(=O)[C@H](CCC(=O)O)NC(=O)[C@H](Cc1ccc(O)cc1)NC(=O)CNC(=O)[C@H](CO)NC(=O)[C@H](CC(=O)O)NC(=O)[C@H](Cc1cnc[nH]1)NC(=O)[C@H](CCCNC(=N)N)NC(=O)[C@H](Cc1ccccc1)NC(=O)[C@H](CCC(=O)O)NC(=O)[C@H](C)NC(=O)[C@@H](N)CC(=O)O)C(C)C)C(C)C)C(C)C)C(=O)N[C@H](C(=O)NCC(=O)N[C@@H](CC(C)C)C(=O)N[C@@H](CCSC)C(=O)N[C@H](C(=O)NCC(=O)NCC(=O)N[C@H](C(=O)N[C@H](C(=O)N[C@H](C(=O)N[C@@H](C)C(=O)O)[C@@H](C)CC)C(C)C)C(C)C)C(C)C)[C@@H](C)CC` came in with a solubility of 1500 µg/mL (≈ 342 µM).

Source of the values: ChEMBL document CHEMBL1155268, “Synthesis of amyloid beta peptide 1-42 (E22Delta) click peptide: pH-triggered in situ production of its native form” (Bioorg Med Chem, 2009).
